Source: patent US6787546B2, “Heterocycle derivatives and drugs” (Nippon Shinyaku Co., Ltd., priority 1999, dated 2004)
Values after ≈ are worked out from the molar mass of the structure shown. Like-named read-outs stand apart in the source and are kept apart here.

Experiments:
[1] = test system: Colon-26 (Mouse Colon Cancer) Cells; test: Anticancer activity against Colon-26 cells transplanted in mice; type: in vivo; conditions: day 21; for Tumor growth inhibition rate (%): 5 times at intervals of 4 days; for Number of Survival: 6 animals/group
Protocol: Anticancer Activity Against Colon-26 (Mouse Colon Cancer) Cells Transplanted in Mice
Colon-26 cells cultured in vitro were transplanted subcutaneously with an injection syringe in the right axillary region of Balb/c 5-week-old male mice (5×10^5 cells/animal). The mice were divided into groups of 6 animals/group when the tumor volume had reached about 120 mm^3 (Experiment 1) or about 100 mm^3 (Experiment 2). The test drug dissolved in 5% glucose solution was administered intravenously 5 times in total once daily at intervals of 4 days. The mice of control group were treated in the same manner with 5% glucose solution. The tumor volume was calculated according to the Equation 1 below on the basis of the major and minor axes of the tumor measured at a given interval with vernier calipers. [formula]
The growth rate was then calculated according to the Equation 2 based on the tumor volume, which was then applied to the Equation 3 for the calculation of the growth inhibition rate in drug-treatment group relative to the control group. [formula]
The tumor growth inhibition rate and the number of survivals at day 21 after initiation of the administration are shown in Table 1.

Solubility in water = type: physicochemical
Protocol: The water solubility of the compound of the present invention was measured at 25° C. As the control compounds, (E)-4-(2-(2-(N-(4-methoxybenzenesulfonyl)amino)-phenyl)ethenyl)pyridine 1-oxide (Compound A) and (E)-4-(2-(2-(N-acetyl-N-(4-methoxy-benzenesulfonyl)amino)phenyl)ethenyl)pyridine 1-oxide (Compound B) were used.

[2] = Experiment 1 (tumor about 120 mm^3 at start), 50 mg/kg i.v.
[3] = Experiment 1 (tumor about 120 mm^3 at start), 75 mg/kg i.v.
[4] = Experiment 1, dose not printed (second dose line of Example 5), i.v.
[5] = Experiment 2 (tumor about 100 mm^3 at start), 50 mg/kg i.v.
[6] = Experiment 2 (tumor about 100 mm^3 at start), 75 mg/kg i.v.

COc1ccc(S(=O)(=O)N(C(=O)CN(C)C)c2ccccc2/C=C/c2cc[n+]([O-])cc2)cc1.Cl [Example 8, (E)-4-(2-(2-(N-(N,N-Dimethylglycyl)-N-(4-methoxybenzenesulfonyl) -amino)phenyl)ethenyl)pyridine 1-oxide hydrochloride]
Tumor growth inhibition rate (%) [1, 2]: 87.0%
Tumor growth inhibition rate (%) [1, 3]: 95.9%
Number of Survival ([1]; Experiment 1, 50 mg/kg i.v.): 5/6
Number of Survival ([1]; Experiment 1, 75 mg/kg i.v.): 5/6

COc1ccc(S(=O)(=O)N(C(=O)CN2CCCCC2)c2ccccc2/C=C/c2cc[n+]([O-])cc2)cc1.Cl [Example 5, (E)-4-(2-(2-(N-(4-Methoxybenzenesulfonyl)-N-piperidinoacetyl-amino)phenyl)ethenyl)pyridine 1-oxide hydrochloride]
Tumor growth inhibition rate (%) [1, 2]: 78.0%
Number of Survival ([1]; Experiment 1, 50 mg/kg i.v.): 6/6
Tumor growth inhibition rate (%) [1, 4]: 87.7%
Number of Survival [1, 4]: 6/6

COc1ccc(S(=O)(=O)N(C(=O)CN2CCN(c3ccccn3)CC2)c2ccccc2/C=C/c2cc[n+]([O-])cc2)cc1.Cl.Cl [Example 9, (E)-4-(2-(2-(N-(4-Methoxybenzenesulfonyl)-N-(4-(2-pyridyl)piperazino)acetylamino)phenyl)ethenyl)pyridine 1-oxide dihydrochloride]
Tumor growth inhibition rate (%) [1, 2]: 80.8%
Tumor growth inhibition rate (%) [1, 3]: 93.6%
Number of Survival ([1]; Experiment 1, 50 mg/kg i.v.): 6/6
Number of Survival ([1]; Experiment 1, 75 mg/kg i.v.): 5/6

COc1ccc(S(=O)(=O)N(C(C)=O)c2ccccc2/C=C/c2cc[n+]([O-])cc2)cc1 [Compound B, (E)-4-(2-(2-(N-acetyl-N-(4-methoxy-benzenesulfonyl)amino)phenyl)ethenyl)pyridine 1-oxide]
solubility (Solubility in water; 25° C., control compounds, read-out: water solubility): 18 µg/mL (≈ 42.4 µM)

COc1ccc(S(=O)(=O)N(C(=O)CN2CCOCC2)c2ccccc2/C=C/c2cc[n+]([O-])cc2)cc1.Cl [Example 13, (E) -4-(2-(2-(N-(4-Methoxybenzenesulfonyl)-N-morpholinoacetyl-amino)phenyl)ethenyl)pyridine 1-oxide hydrochloride]
Tumor growth inhibition rate (%) [1, 5]: 73.8%
Tumor growth inhibition rate (%) [1, 6]: 92.6%
Number of Survival ([1]; Experiment 2, 50 mg/kg i.v.): 6/6
Number of Survival ([1]; Experiment 2, 75 mg/kg i.v.): 6/6

COc1ccc(S(=O)(=O)N(C(=O)CN2CCN(c3cccnc3)CC2)c2ccccc2/C=C/c2cc[n+]([O-])cc2)cc1.Cl.Cl
melting point: 167 °C (dec.)

COc1ccc(S(=O)(=O)Nc2ccccc2/C=C/c2cc[n+]([O-])cc2)cc1 [Compound A, (E)-4-(2-(2-(N-(4-methoxybenzenesulfonyl)amino)-phenyl)ethenyl)pyridine 1-oxide]
solubility (Solubility in water; 25 °C): 29 µg/mL (≈ 75.8 µM)

COc1ccc(S(=O)(=O)N(C(=O)CN)c2ccccc2/C=C/c2cc[n+]([O-])cc2)cc1.Cl
melting point: 235 to 237 °C

COc1ccc(S(=O)(=O)N(C(=O)c2ccncc2)c2ccccc2/C=C/c2cc[n+]([O-])cc2)cc1.Cl.Cl
melting point: 198 to 200 °C

COc1ccc(S(=O)(=O)N(C(=O)CN2CCCC2)c2ccccc2/C=C/c2cc[n+]([O-])cc2)cc1.Cl [Example 14, (E)-4-(2-(2-(N-(4-Methoxybenzenesulfonyl)-N-pyrrolidinoacetylamino) -phenyl)ethenyl)pyridine 1-oxide hydrochloride]
Tumor growth inhibition rate (%) [1, 5]: 78.6%
Tumor growth inhibition rate (%) [1, 6]: 84.1%
Number of Survival ([1]; Experiment 2, 50 mg/kg i.v.): 6/6
Number of Survival ([1]; Experiment 2, 75 mg/kg i.v.): 6/6

COc1ccc(S(=O)(=O)N(C(=O)c2cccnc2)c2ccccc2/C=C/c2cc[n+]([O-])cc2)cc1.Cl.Cl
melting point: 187 to 189 °C
